pIC50: −log10 of the molar value.
Molecular target: cAMP-dependent protein kinase catalytic subunit alpha (Bos taurus, UniProt P00517)
Assay: PKA Inhibition Assay
Excerpt: IC50 is the inhibitor concentration, which inhibits 50% of PKA activity that catalyzes the transfer of the terminal phosphate from [gamma-32P] labeled ATP to a synthetic kemptide peptide substrate.

Row | Structure (SMILES) | pIC50 | pIC50 (pH 7.4, 30 °C)
1 | O=S(=O)(c1ccccc1)n1c2cc(O)c(O)cc2c2cc(O)c(O)cc21 [9-(benzenesulfonyl)-9H-carbazole-2,3,6,7-tetrol] | < 3.22 | –
2 | Oc1cc2nc(O)c3cc(O)c(O)cc3c2cc1O [2,3,8,9-tetrahydroxy-5,6-dihydrophenanthridin-6-one] | – | < 3.10
3 | CCn1c(=O)c2cc(O)c(O)cc2c2cc(O)c(O)cc21 [5-ethyl-2,3,8,9-tetrahydroxy-5,6-dihydrophenanthridin-6-one] | – | < 2.70

Reference: BindingDB's records for doi:10.1021/jm00040a015 (Pfizer, 1994)
